Test [1] deals with H1047R PIK3CA enzyme (Homo sapiens, UniProt P42336, H1047R). Put plainly: ADP-Glo Biochemical PIK3CA Kinase Assay. A general note: In ADP-Glo the light output rises with the ADP produced.
Test [2] in a line: cells. As to conditions: Homo sapiens, MCF-10A, read-out: MCF10A I50.
Where [3] appears, read: ADP-Glo biochemical PIK3CA kinase assay.

Like-named read-outs stand apart in the source and are kept apart here. Some results are limits rather than exact numbers.

H1047R PIK3CA enzyme, sequence (P42336 whole entry H1047R): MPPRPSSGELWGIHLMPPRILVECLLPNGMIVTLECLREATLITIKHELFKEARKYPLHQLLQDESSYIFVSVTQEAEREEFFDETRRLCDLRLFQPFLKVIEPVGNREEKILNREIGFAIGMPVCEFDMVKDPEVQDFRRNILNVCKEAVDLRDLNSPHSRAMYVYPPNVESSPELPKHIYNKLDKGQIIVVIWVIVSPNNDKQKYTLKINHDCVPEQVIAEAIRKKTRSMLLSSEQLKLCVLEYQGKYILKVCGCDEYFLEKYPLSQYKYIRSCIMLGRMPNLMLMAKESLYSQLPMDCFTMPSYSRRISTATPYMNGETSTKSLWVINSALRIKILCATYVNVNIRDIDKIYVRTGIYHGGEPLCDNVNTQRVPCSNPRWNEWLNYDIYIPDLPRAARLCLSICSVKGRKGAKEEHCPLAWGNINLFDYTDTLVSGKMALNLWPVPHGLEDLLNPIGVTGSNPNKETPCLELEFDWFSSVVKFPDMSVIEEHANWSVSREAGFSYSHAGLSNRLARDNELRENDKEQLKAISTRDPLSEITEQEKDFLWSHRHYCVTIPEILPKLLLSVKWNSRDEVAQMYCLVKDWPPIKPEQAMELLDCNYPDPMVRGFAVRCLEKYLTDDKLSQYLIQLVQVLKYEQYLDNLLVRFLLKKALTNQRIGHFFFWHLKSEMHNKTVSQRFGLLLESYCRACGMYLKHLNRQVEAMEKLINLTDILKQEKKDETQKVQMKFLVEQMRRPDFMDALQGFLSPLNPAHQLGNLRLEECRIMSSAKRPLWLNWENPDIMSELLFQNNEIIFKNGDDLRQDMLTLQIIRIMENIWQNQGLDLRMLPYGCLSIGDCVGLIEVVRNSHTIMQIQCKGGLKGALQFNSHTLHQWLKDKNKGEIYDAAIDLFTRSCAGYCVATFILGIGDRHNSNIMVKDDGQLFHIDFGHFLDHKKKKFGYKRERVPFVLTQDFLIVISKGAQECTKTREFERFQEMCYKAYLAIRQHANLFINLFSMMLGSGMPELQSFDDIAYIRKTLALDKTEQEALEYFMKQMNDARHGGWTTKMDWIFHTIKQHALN
H1047R PIK3CA enzyme, sequence (P27986 whole entry partner): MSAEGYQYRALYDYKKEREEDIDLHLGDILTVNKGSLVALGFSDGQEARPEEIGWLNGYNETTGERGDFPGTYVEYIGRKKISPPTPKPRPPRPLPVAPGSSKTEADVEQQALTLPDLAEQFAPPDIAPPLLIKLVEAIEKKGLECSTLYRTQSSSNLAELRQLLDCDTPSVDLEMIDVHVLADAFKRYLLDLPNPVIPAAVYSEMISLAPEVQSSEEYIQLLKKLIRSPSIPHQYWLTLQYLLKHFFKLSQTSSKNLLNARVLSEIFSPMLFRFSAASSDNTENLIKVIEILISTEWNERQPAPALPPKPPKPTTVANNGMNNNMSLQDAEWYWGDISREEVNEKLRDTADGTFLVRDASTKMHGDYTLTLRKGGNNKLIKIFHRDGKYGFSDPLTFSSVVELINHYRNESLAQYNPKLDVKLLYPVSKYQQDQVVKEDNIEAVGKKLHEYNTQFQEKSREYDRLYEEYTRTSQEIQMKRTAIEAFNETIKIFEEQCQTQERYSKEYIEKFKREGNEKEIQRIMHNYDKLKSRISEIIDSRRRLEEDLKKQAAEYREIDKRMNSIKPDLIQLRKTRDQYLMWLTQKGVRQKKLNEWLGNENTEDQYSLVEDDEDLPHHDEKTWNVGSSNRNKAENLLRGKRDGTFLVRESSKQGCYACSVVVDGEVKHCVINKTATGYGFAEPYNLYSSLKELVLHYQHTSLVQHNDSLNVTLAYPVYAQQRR

As to `CNC(=O)c1cnc(Nc2ccccc2C)c(NC(=O)C(O)c2cccc(F)c2)c1` (stereo not drawn) [I-27], the IC50 in test [1] fell in the range of 500 to 1000 nM; in test [2] it was 1 to 5 µM.
Take `Cc1ccccc1Nc1ncc(C(=O)NCC2(O)CC2)cc1NC(=O)c1csc2ccccc12` [I-599]: the IC50 in test [1] (setting [3]) lay within 100 to 500 nM; in test [2], 5 to 10 µM.
On to `CNC(=O)c1cnc(Nc2ccccc2C)c(NC(=O)c2cc(F)cc(C(F)(F)F)c2)c1` [I-1], for which the IC50 in test [1] was in the range of 500 to 1000 nM; in test [2] it was 5 to 10 µM.
For `Cc1ccccc1Nc1ncc(C(=O)N[C@H]2C[C@@H](O)C2)cc1NC(=O)c1csc2ccccc12` [I-397] the same measures were at most 100 nM and 5 to 10 µM.
As for `Cc1ccccc1Nc1ncc(C(=O)NC2CCOCC2)cc1NC(=O)c1csc2ccccc12` [I-584], the IC50 in test [1] (setting [3]) lay within 100 to 500 nM; in test [2], 5 to 10 µM.
`CNC(=O)c1cnc(Nc2ccccc2C)c(NC(=O)c2csc3cnccc23)c1` [I-339]: the IC50 in test [1] lay in the range of 500 to 1000 nM; in test [2] it was 1 to 5 µM.
Regarding `Cc1ccccc1Nc1ncc(C(=O)N[C@H]2CC[C@@H](F)C2)cc1NC(=O)c1csc2ccccc12` [I-546], the IC50 in test [1] (setting [3]) was at most 100 nM; in test [2], 5 to 10 µM.
As to `CNC(=O)c1cnc(Nc2ccccc2Cl)c(NC(=O)c2csc3ccccc23)c1` [I-362], the IC50 in test [1] was at most 100 nM; in test [2], 10 to 36 µM.
Regarding `O=C(NC1(c2cccnc2)CC1)c1cnc(N2CCOc3ccccc32)c(NC(=O)c2csc3ccccc23)c1` [I-256], the IC50 in test [1] fell in the range of 100 to 500 nM; in test [2] it was 1 to 5 µM.
For the compound `Cc1ccccc1Nc1ncc(C(=O)NC2CC(=O)N(Cc3ccccc3)C2)cc1NC(=O)c1csc2ccccc12` (stereo not drawn) [I-398], the IC50 fell in the range of 100 to 500 nM in test [1] (setting [3]) and 10 to 36 µM in test [2].
Take `CNC(=O)c1cnc(Nc2cccc(F)c2C)c(NC(=O)c2cc(F)cc(C(F)(F)F)c2)c1` [I-302]: the figures for the IC50 in test [1] and in test [2] were 500 to 1000 nM and 5 to 10 µM, respectively.
On to `Cc1ccccc1Nc1ncc(CNS(=O)(=O)c2ccccc2)cc1NC(=O)c1cc(F)cc(C(F)(F)F)c1` [I-307], for which the IC50 in test [1] is 100 to 500 nM; in test [2] it was 1 to 5 µM.
Take `COc1ccnc(CNC(=O)c2cnc(Nc3ccccc3C)c(NC(=O)c3csc4ccccc34)c2)c1` [I-538]: the IC50 was in the range of 100 to 500 nM in test [1] (setting [3]) and 10 to 36 µM in test [2].
Taken in the same sequence, the figures for `Cc1ccccc1Nc1ncc(C(=O)NCC(F)F)cc1NC(=O)c1csc2ccccc12` [I-519] were at most 100 nM and 5 to 10 µM.
As to `Cc1ccccc1Nc1ncc(C(=O)NCc2ccc(Cl)cc2)cc1NC(=O)c1csc2ccccc12` [I-191], the figures for the IC50 in test [1] and in test [2] were 100 to 500 nM and 1 to 5 µM, respectively.
Consider `Cc1ccccc1Nc1ncc(C(=O)N[C@H]2C[C@H](C(=O)O)C2)cc1NC(=O)c1csc2ccccc12` [I-685], for which the IC50 in test [1] (setting [3]) lay in the range of 500 to 1000 nM; in test [2] it was 10 to 36 µM.
Taken in the same sequence, the figures for `COCC(=O)N1CCC(NC(=O)c2cnc(Nc3ccccc3C)c(NC(=O)c3csc4ccccc34)c2)CC1` [I-592] were 1000 to 10000 nM and 5 to 10 µM.
With `Cc1ccccc1Nc1ncc(C(=O)NC2CCC(O)C2)cc1NC(=O)c1cc(F)cc(C(F)(F)F)c1` (stereo not drawn) [I-275], the IC50 was 100 to 500 nM in test [1] and 1 to 5 µM in test [2].
Taken in the same sequence, the figures for `Cc1ccccc1Nc1ncc(C(=O)NCc2cnn(C)c2)cc1NC(=O)c1cc(F)cc(C(F)(F)F)c1` [I-53] were 100 to 500 nM and 5 to 10 µM.
`C[C@@H](NC(=O)c1cnc(N2CCOc3ccccc32)c(NC(=O)c2csc3ccccc23)c1)c1ccncc1` (stereo in doubt) [I-314]: the IC50 in test [1] is 100 to 500 nM; in test [2] it was 5 to 10 µM.
Taken in the same sequence, the figures for `Cc1cc(NC(=O)c2cnc(Nc3ccccc3C)c(NC(=O)c3cc(F)cc(C(F)(F)F)c3)c2)n[nH]1` [I-232] were 100 to 500 nM and 1 to 5 µM.
On to `Cc1ccccc1Nc1ncc(C(=O)N2CC(C)C2)cc1NC(=O)c1csc2ccccc12` [I-607], for which the IC50 in test [1] (setting [3]) fell in the range of 100 to 500 nM; in test [2], 5 to 10 µM.
Consider `Cc1ccccc1Nc1ncc(C(=O)N[C@@H]2CC[C@@H](O)C2)cc1NC(=O)c1csc2ccccc12` [I-626], for which the IC50 in test [1] (setting [3]) fell in the range of 100 to 500 nM; in test [2], 1 to 5 µM.
For `C[C@]1(O)C[C@@H](NC(=O)c2cnc(N3CCOc4ccccc43)c(NC(=O)c3csc4ccccc34)c2)C1` [I-317], the IC50 is 100 to 500 nM in test [1] and 5 to 10 µM in test [2].
Taken in the same sequence, the figures for `O=C(NC1CS(=O)(=O)C1)c1cnc(N2CCOc3ccccc32)c(NC(=O)c2csc3ccccc23)c1` [I-245] were 100 to 500 nM and 5 to 10 µM.
For `Cc1ccccc1Nc1ncc(-c2cncc(C#N)c2)cc1NC(=O)c1cc(F)cc(C(F)(F)F)c1` [I-75] the same measures were 100 to 500 nM and 1 to 5 µM.
On to `Cc1ccccc1Nc1ncc(C(=O)NCC2CCN(C)C(=O)C2)cc1NC(=O)c1csc2ccccc12` (stereo not drawn) [I-563], for which the results for the IC50 in test [1] (setting [3]) and in test [2] were 100 to 500 nM and 10 to 36 µM, respectively.
Turning to `Cc1ccccc1Nc1cc2nnc(N)n2cc1NC(=O)c1csc2ccccc12` [I-350], the IC50 in test [1] lay within 1000 to 10000 nM; in test [2], 1 to 5 µM.
Taken in the same sequence, the figures for `CNC(=O)c1cnc(Nc2nc(C)cs2)c(NC(=O)c2cc(F)cc(C(F)(F)F)c2)c1` [I-304] were 1000 to 10000 nM and 36 to 100 µM.
For `CNC(=O)c1cnc(Nc2cccc(F)c2Cl)c(NC(=O)c2cc(F)cc(C(F)(F)F)c2)c1` [I-249] the same measures were 100 to 500 nM and 1 to 5 µM.
Regarding `Cc1ccccc1Nc1ncc(N2CC(S(C)(=O)=O)C2)cc1NC(=O)c1csc2ccccc12` [I-436], the IC50 was in the range of 500 to 1000 nM in test [1] (setting [3]) and 10 to 36 µM in test [2].
For `Cc1ccccc1Nc1ncc(C(=O)N[C@H]2COC[C@@H]2O)cc1NC(=O)c1csc2ccccc12` [I-618] the same measures were 100 to 500 nM and 1 to 5 µM.
Turning to `Cc1ccccc1Nc1ncc(C(=O)Nc2cnn(C)c2)cc1NC(=O)c1csc2ccccc12` [I-624], the IC50 in test [1] (setting [3]) was 100 to 500 nM; in test [2], below 1 µM.
For `CNC(=O)c1cnc(Nc2ccccc2C)c(NC(=O)c2cc(C#N)cc(C(F)(F)F)c2)c1` [I-527] the same measures were 100 to 500 nM and 5 to 10 µM.
Taken in the same sequence, the figures for `Cc1ccccc1Nc1ncc(C(=O)N[C@H]2CCCOC2)cc1NC(=O)c1csc2ccccc12` [I-545] were 100 to 500 nM and 1 to 5 µM.
Regarding `CNC(=O)c1ccc(Nc2cc(F)ccc2Cl)c(NC(=O)c2cc(F)cc(C(F)(F)F)c2)n1` [I-802], the IC50 in test [1] lay within 100 to 500 nM; in test [2] it was 1 to 5 µM.
In the case of `Cc1ccccc1Nc1ncc(C(=O)N[C@@H]2CC[C@@H](F)C2)cc1NC(=O)c1csc2ccccc12` [I-547], the IC50 in test [1] (setting [3]) was 100 to 500 nM; in test [2] it was 5 to 10 µM.
`Cc1ccccc1Nc1ncc(C(=O)NC2(C)CS(=O)(=O)C2)cc1NC(=O)c1csc2ccccc12` [I-361]: the IC50 in test [1] lay in the range of 100 to 500 nM; in test [2], 1 to 5 µM.
Consider `CNC(=O)c1cnc(Nc2ccccc2C)c(NC(=O)Cc2cnc3ccccn23)c1` [I-652], for which the results for the IC50 in test [1] (setting [3]) and in test [2] were 100 to 500 nM and 10 to 36 µM, respectively.
Taken in the same sequence, the figures for `CC(NC(=O)c1cnc(N)c(NC(=O)c2csc3ccccc23)c1)c1nnc2ccccn12` (stereo not drawn) [I-691] were 100 to 500 nM and 5 to 10 µM.
For the compound `Cc1ccccc1Nc1ncc(C(=O)NCc2cocn2)cc1NC(=O)c1csc2ccccc12` [I-602], the IC50 was 100 to 500 nM in test [1] (setting [3]) and 10 to 36 µM in test [2].
With `Cc1ccccc1Nc1ncc(C(=O)N[C@H]2CC[C@@H](O)C2)cc1NC(=O)c1csc2ccccc12` [I-596], the results for the IC50 in test [1] (setting [3]) and in test [2] were 100 to 500 nM and 1 to 5 µM, respectively.
Taken in the same sequence, the figures for `CNC(=O)c1cnc(Nc2ccccc2C)c(NC(=O)c2n[nH]c3ccc(Br)cc23)c1` [I-520] were at most 100 nM and 10 to 36 µM.
As to `Cn1nccc1CNC(=O)c1cnc(N2CCCc3ccccc32)c(NC(=O)c2cc(F)cc(C(F)(F)F)c2)c1` [I-210], the IC50 in test [1] fell in the range of 1000 to 10000 nM; in test [2] it was 36 to 100 µM.
Turning to `CNC(=O)c1cnc(Nc2ccccc2C)c(NC(=O)c2csc3ccc(OC)cc23)c1` [I-409], the figures for the IC50 in test [1] (setting [3]) and in test [2] were 1000 to 10000 nM and 10 to 36 µM, respectively.
For `Cc1ccccc1Nc1ncc(C(=O)NCC2CCC(O)C2)cc1NC(=O)c1csc2ccccc12` (stereo not drawn) [I-588] the same measures were 100 to 500 nM and 10 to 36 µM.
For `Cc1ccccc1Nc1ncc(C(=O)NCCn2nccn2)cc1NC(=O)c1csc2ccccc12` [I-578], the IC50 fell in the range of 100 to 500 nM in test [1] (setting [3]) and 10 to 36 µM in test [2].
For `CNC(=O)c1cnc(Nc2ccccc2C)c(NC(=O)c2coc3ccc(Cl)cc23)c1` [I-408] the same measures were 500 to 1000 nM and 1 to 5 µM.
Turning to `C[C@H](NC(=O)c1cnc(N2CCOc3ccccc32)c(NC(=O)c2csc3ccccc23)c1)c1cccnc1` (stereo in doubt) [I-258], the figures for the IC50 in test [1] and in test [2] were 100 to 500 nM and 10 to 36 µM, respectively.
For `Cc1ccccc1Nc1ncc(C(=O)NC2CC(F)(F)C2)cc1NC(=O)c1csc2ccccc12` [I-248] the same measures were 100 to 500 nM and 1 to 5 µM.
On to `COc1cnccc1CCNC(=O)c1cnc(Nc2ccccc2C)c(NC(=O)c2csc3ccccc23)c1` [I-515], for which the IC50 fell in the range of 100 to 500 nM in test [1] (setting [3]) and 10 to 36 µM in test [2].
In the case of `Cc1ccccc1Nc1ncc(C(=O)NC2CS(=O)(=O)C2)cc1NC(=O)c1cc(F)cc(C(F)(F)F)c1` [I-51], the figures for the IC50 in test [1] and in test [2] were at most 100 nM and below 1 µM, respectively.
For `CNC(=O)c1cnc(Nc2ccccc2C)c(NC(=O)c2cc(F)cc(C#N)c2)c1` [I-313] the same measures were 1000 to 10000 nM and 10 to 36 µM.
Take `Cc1ccccc1Nc1ncc(C(=O)NC(C)c2cn[nH]c2)cc1NC(=O)c1csc2ccccc12` (stereo not drawn) [I-605]: the IC50 in test [1] (setting [3]) was at most 100 nM; in test [2], 1 to 5 µM.
For `Cc1ccccc1Nc1ncc(C(=O)NC2CS(=O)(=O)C2)cc1NC(=O)c1csc2ccccc12` [I-136], the IC50 in test [1] was at most 100 nM; in test [2] it was 1 to 5 µM.
For the compound `Cc1ccccc1Nc1ncc(C(=O)N[C@H]2CCOC2)cc1NC(=O)c1csc2ccccc12` [I-622], the IC50 in test [1] (setting [3]) lay in the range of 100 to 500 nM; in test [2] it was 1 to 5 µM.
On to `C[C@@H](NC(=O)c1cnc(N2CCOc3ccccc32)c(NC(=O)c2csc3ccccc23)c1)c1ccccn1` (racemic) [I-337], for which the figures for the IC50 in test [1] and in test [2] were 100 to 500 nM and 5 to 10 µM, respectively.

These data come from patent US20250090540A1, “PI3K-ALPHA INHIBITORS AND METHODS OF USE THEREOF” (Relay Therapeutics, Inc., priority 2021, published 2025).
